The record followed here is US8663668B2, “Preservative for medical devices” (Fresenius Medical Care Deutschland GmbH, priority 2004, dated 2014).

A short description of this test: antimicrobial effectiveness test (USP 27), disinfectant/preservative effect. Particulars: additive alone. The class given is cell-based. The text has this: Within the context of the present invention, preferably poly(hexamethylene)biguanide having a molecular weight of 2900 to 15,000 (PHMB) is used as the biguanide compound. An especially preferred disinfection solution contains PHMB in a concentration of 0.01% to 0.5% by weight, where concentrations of 0.02% to 0.06% by weight are especially advantageous. A neutral buffer containing phosphate, and preferably also containing the following substances is used as the medium: sodium citrate dihydrate, sodium acetate trihydrate, sodium chloride, sodium monohydrogen phosphate, potassium dihydrogen phosphate. Such a solution effectively disinfects and preserves the aforementioned medical devices and is in compliance with the requirements of the “antimicrobial effectiveness tests” described in USP 27 (United States Pharmacopoeia).
An adsorber column of the type IMMUNOSORBA (Fresenius Adsorber Technology GmbH) is used to remove antibodies from blood plasma and binds the antibodies via protein A of Staphylococcus aureus. This adsorber column is filled with a solution according to Example 1.

Turning to `N[C@@H](Cc1c[nH]c2ccccc12)C(=O)O` [Tryptophan, tryptophan], the disinfectant effect result is given as “does not have any disinfectant effect”.
